Experimental data: patent US11203578B2, “Oxadiazole derivatives for the treatment of genetic diseases due to nonsense mutations” (UNIVERSITA' DEGLI STUDI DIPALERMO, priority 2017, dated 2021)

Experiments:
[1] = system: nsCFTR-Q552X ochre; assay: Immunofluorescence analysis of CFTR in nsCFTR-Q552X ochre FRT cells; format: cell-based, human; settings: 12 μM, 24 hours
Description: (§1) FRT cells were also engineered with a vector expressing nsCFTR (nonsense). To this aim, Site […] Directed Mutagenesis of the full-length CFTR cDNA cloned in the pTracer Zeocin (pTCF-wild type) vector (provided by Gaslini Hospital Genova, Italy) was performed, the CFTR DNA is available at NCBI Reference Sequence NG_016465.4. With the aim of introducing in the CFTR cDNA single base mutations c1654t or c1657t to convert, respectively, […] 552 (caa>taa ochre) or Arginine 553 (cga>tga opal) in nonsense codons, site-directed mutagenesis of the full-length cDNA cloned in the pTracer Zeocin (pTCF-wild type) vector (provided by Gaslini Hospital Genova, Italy) was performed (CFTR DNA available at NCBI Reference Sequence: NG_016465.4). The pTCF-wild type vector was amplified by PCR with the following primers: […]
(§2) To further evaluate the efficacy of NV848, NV914 and NV930 FRT cells were transfected with the pTracer vectors containing either the WT-CFTR (CFTRWT) or the R553X-CFTR and the Q552X-CFTR (nsCFTR-R553X-opal, nsCFTR-Q552X ochre) human cDNA and selected by Zeocin resistance. The expression of the CFTRWT and nsCFTR CFTR (nsCFTR-R553X-opal, nsCFTR-Q552X ochre) in transfected FRT cells was evaluated by qRT-PCR. The nsCFTR-Q552X ochre, nsCFTR-R553X-opal FRT transfected cells were treated with NV848, (12 μM), and ATALUREN (12 μM) as positive control, for 24 hours and the expression of the human CFTR was evaluated by immunofluorescence analysis.

[2] = system: pFLuc-opal (UGA stop mutation); assay: FLuc cell-based readthrough assay in HeLa FLuc-opal transfected cells; settings: 12 μM, 24 hours treatment, pFluc-opal HeLa cells, compared to untreated
Excerpt: The results disclosed in (Pibiri I., Lentini L., Tutone M., Melfi R., Pace A., Di Leonardo A. Exploring the readthrough of nonsense mutations by non-acidic Ataluren analogues selected by ligand-based virtual screening. Eur. J. Med. Chem. 122 (2016) 429-435) have been refined with 3D-QSAR (quantitative structure-activity relationships) pharmacophore modelling. The endpoint to build QSAR models was the luciferase activity known data. These values were converted to pFLUC (−log FLUC) values. In order to find the common pharmacophore hypothesis, we divided the 24 compounds in three different classes of activity related to the FLUC values (Pharm set). We considered as active, compounds with FLUC values >4.52 (ATALUREN FLUC value), as inactives, compounds with FLUC values ≤4.00, and as moderate actives, compounds with 4.39≤FLUC values ≤4,51. Dataset was randomly split into a training set (19 compounds) for models generation, and test set (5 compounds) for the validation of developed models, as reported in Table 1.
To ascertain the effectiveness of the newly synthesized ataluren analogues in promoting the readthrough of premature termination codons was used the FLuc cell-based assay. To this aim HeLa cells were transfected transiently with the plasmids pFLuc-wild type (control) and pFLuc-opal (UGA stop mutation) (NIH Chemical Genomics Center, National Institutes of Health, Bethesda, USA). FLuc gene expression was then measured by luminescence.

[3] = system: HeLa cells; assay: Cytotoxic effects and impact on cell proliferation in HeLa cells; format: cell-based; settings: 12 μM
Description: HeLa cells were used to determine the possible cytotoxic effects of our compounds and the impact on cell proliferation. In FIG. 7 are reported the percentages of dead cells and proliferating cells after treatment with 12 μM compounds and 12 μM ATALUREN.

[4] = system: nsCFTR-R553X-opal; assay: Immunofluorescence analysis of CFTR in nsCFTR-R553X-opal FRT cells; format: cell-based, human; settings: 12 μM, 24 hours
Description: as §1, §2

[5] = system: nsCFTR(G542X-opal); assay: Immunofluorescence analysis of CFTR in nsCFTR(G542X-opal) FRT cells; format: cell-based, human; settings: 12 μM, 24 hours
Description: To work in a cell system containing exclusively nonsense mutations and in particular the more representative CFTR nonsense mutation, the G542X, FRT cells were engineered with a vector expressing nsCFTR (nonsense). To this aim, Site Directed Mutagenesis of the full-length CFTR cDNA cloned in the pTracer-Zeocin (pTCF-wild type) vector (Gaslini Hospital Genova, Italy) was performed (CFTR DNA available at NCBI Reference Sequence: NG_016465.4). To substitute the Glicine 542 coding codon GGA with a stop codon, was introduced a single nucleotide mutation. The first guanine of the codon, position 1624 of the cDNA, was changed in a thymine to introduce an opal nonsense mutation. We amplified the plasmid harbouring cDNA with the following primers: […]
To further evaluate the efficacy of NV914, NV848, NV930, FRT cells were transfected with the pTRACER vectors containing either the wild type CFTR or the nsCFTR(G542X-opal) cDNA and selected by Zeocin resistance. The advantage of the use of these cells is that they don't express cAMP dependent channels (as CFTR) or CFTR protein. The expression of the human CFTR wild type and nsCFTR(G542X-opal) in transfected FRT cells was evaluated by qRT-PCR and Western blot, as shown in FIG. 5.
The same FRT cells were then treated with NV914, NV848, NV930 (12 μM), and ATALUREN (12 μM) (as positive control) for 24 hours and the expression of the human CFTR wild type and nsCFTR(G542X-opal) was again evaluated by immunofluorescence analysis.
FRT cells transfected with a pTracer nsCFTR-G542X-opal vector the treated with NV848, NV914, NV930 (12 μM), and ATALUREN (12 μM) as positive control, for 24 hours and the expression of the human CFTR wild type and nsCFTR (nsCFTR-G542X-opal) was evaluated by immunofluorescence analysis.
In details, immunofluorescence analysis was used to detect the CFTR protein following the readthrough of the UGA stop codon in nsCFTR(opal) FRT cells untreated, treated with G418 as positive contro) and with PTC124 and NV848, Nv914, NV930 for 24 h. […] Nuclei (blue) were DAPI stained.

Question: Which “CFTR full-length expression and membrane localization” value [1] does the source give for `O=C(Nc1noc(-c2c(F)c(F)c(F)c(F)c2F)n1)c1c(F)c(F)c(F)c(F)c1F` [NV914, 2,3,4,5,6-pentafluoro-N-(5-(perfluorophenyl)-1,2,4-oxadiazol-3-yl)benzamide] here?
Answer: induced the CFTR full-length expression and membrane localization

Question: And the luciferase activity [2]?
Answer: significant increase of luciferase activity

Question: What about the dead cells ([3]; 24 h) of the same molecule?
Answer: 5%

Question: And the dead cells ([3]; 72 h)?
Answer: 2%

Question: And the “CFTR full-length expression and membrane localization” value [4]?
Answer: induced the CFTR full-length expression and membrane localization

Question: And the “CFTR full-length expression and membrane localization” value [5]?
Answer: induced the CFTR full-length expression and membrane localization

Question: With `CC(=O)Nc1noc(C)n1` [NV848, 3-acetylamino-5-methyl-1,2,4-oxadiazole] as the molecule, how does the “CFTR full-length expression and membrane localization” value [1] read?
Answer: induced the CFTR full-length expression and membrane localization

Question: And the luciferase activity [2]?
Answer: significant increase of luciferase activity

Question: What about the dead cells ([3]; 24 h) of the same molecule?
Answer: 7%

Question: What about the dead cells ([3]; 72 h) of the same molecule?
Answer: 6%

Question: What about the “CFTR full-length expression and membrane localization” value [4] of the same molecule?
Answer: induced the CFTR full-length expression and membrane localization

Question: And the “CFTR full-length expression and membrane localization” value [5]?
Answer: induced the CFTR full-length expression and membrane localization

Question: `CCOC(=O)c1noc(-c2ccccc2)n1` [NV930, ethyl 5-phenyl-1,2,4-oxadiazole-3-carboxylate] was tested. Which “CFTR full-length expression and membrane localization” value [1] did it give?
Answer: induced the CFTR full-length expression and membrane localization

Question: And the luciferase activity [2]?
Answer: significant increase of luciferase activity

Question: And the dead cells ([3]; 24 h)?
Answer: 2%

Question: What about the dead cells ([3]; 72 h) of the same molecule?
Answer: 4%

Question: What about the “CFTR full-length expression and membrane localization” value [4] of the same molecule?
Answer: induced the CFTR full-length expression and membrane localization

Question: And the “CFTR full-length expression and membrane localization” value [5]?
Answer: induced the CFTR full-length expression and membrane localization
